Measurements from patent publication US20150352108A1, “AMINO-PYRIMIDINE COMPOUNDS AS INHIBITORS OF TBK1 AND/OR IKK EPSILON” (Alzheimer's Institute of America, priority 2009, published 2015).
Read-outs that look alike come from different tables or passages of the source.

How the values were obtained:
[1] = molecular target: T1, IKKε (Homo sapiens, UniProt Q14164); assay: In-vitro IKKε kinase assay ([γ33]ATP filter-plate); type: biochemical
T1 construct: His-tag; made in house; host or cells: Sf9 insect cells
T1 sequence (Q14164 1-716): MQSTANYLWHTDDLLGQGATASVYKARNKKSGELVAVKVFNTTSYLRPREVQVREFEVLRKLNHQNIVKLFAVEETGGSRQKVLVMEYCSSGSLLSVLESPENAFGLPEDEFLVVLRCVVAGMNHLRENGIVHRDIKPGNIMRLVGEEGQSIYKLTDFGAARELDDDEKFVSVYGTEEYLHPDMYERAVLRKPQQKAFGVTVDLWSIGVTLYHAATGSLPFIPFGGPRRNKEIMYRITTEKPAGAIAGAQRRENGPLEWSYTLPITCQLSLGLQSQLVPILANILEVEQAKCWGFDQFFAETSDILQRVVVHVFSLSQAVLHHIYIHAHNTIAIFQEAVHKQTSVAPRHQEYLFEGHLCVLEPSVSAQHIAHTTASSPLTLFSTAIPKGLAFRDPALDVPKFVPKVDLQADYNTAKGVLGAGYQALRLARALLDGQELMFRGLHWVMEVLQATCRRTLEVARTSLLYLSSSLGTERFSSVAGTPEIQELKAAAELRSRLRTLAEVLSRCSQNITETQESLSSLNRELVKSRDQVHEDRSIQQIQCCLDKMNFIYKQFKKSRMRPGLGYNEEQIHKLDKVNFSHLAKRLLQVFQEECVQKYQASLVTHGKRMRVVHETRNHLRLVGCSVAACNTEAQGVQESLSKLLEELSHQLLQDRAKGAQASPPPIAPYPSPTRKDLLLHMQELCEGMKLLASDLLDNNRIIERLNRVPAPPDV
Method in brief: (§1)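 His-tagged Sf9-expressed kinases at 0.1 or 0.02 μg/ml (TBK1) and 0.1 or 0.015 μg/ml (IKKε) for normal and sensitized formats, with myelin basic protein or casein substrate. ATP was at 2×Km (60 μM TBK1, 32 μM IKKε) plus 0.3 μCi [γ33]ATP. Reactions ran 30-45 min, were captured on P-81 filters, and counts were normalized to DMSO.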

[2] = molecular target: T2, TBK1 (Homo sapiens, UniProt Q9UHD2); assay: In-vitro TBK1 kinase assay ([γ33]ATP filter-plate); type: biochemical
T2 construct: His-tag; made in house; host or cells: Sf9 insect cells
T2 sequence (Q9UHD2 1-729): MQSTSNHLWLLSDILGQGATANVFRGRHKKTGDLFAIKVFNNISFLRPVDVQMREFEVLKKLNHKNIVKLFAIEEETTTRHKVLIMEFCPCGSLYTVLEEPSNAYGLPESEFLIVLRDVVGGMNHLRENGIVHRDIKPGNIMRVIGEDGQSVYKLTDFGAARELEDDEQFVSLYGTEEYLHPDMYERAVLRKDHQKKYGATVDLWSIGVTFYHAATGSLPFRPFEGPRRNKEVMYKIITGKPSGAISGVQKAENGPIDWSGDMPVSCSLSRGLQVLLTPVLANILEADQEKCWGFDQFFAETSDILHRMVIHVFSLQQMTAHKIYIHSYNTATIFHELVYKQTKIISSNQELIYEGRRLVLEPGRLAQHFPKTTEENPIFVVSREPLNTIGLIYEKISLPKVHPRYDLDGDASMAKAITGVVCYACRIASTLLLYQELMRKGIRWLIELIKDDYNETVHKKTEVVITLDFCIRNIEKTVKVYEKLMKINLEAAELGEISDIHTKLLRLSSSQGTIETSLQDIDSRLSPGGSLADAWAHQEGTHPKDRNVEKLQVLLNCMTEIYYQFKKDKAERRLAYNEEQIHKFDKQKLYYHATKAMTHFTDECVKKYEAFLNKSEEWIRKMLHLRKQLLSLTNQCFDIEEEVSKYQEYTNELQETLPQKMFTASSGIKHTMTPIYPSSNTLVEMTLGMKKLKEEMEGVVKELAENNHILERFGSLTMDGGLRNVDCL
Method in brief: as §1

[3] = system: IKKε-mediated phosphorylation of IRF3; assay: In-situ phosphorylation of IRF3 (pIRF3 Ser396 ELISA) in HEK293T cells cotransfected with IRF3 and IKKε; type: cell-based; details: Homo sapiens, HEK-293T
Method in brief: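 Cells for the IRF7 Western blots carried IRF7 and TBK1 plasmids, were seeded at 150,000/well, exposed to compound overnight and probed for pSer477/Ser479 IRF7. The ELISA readout used IRF3 + IKKε-cotransfected HEK293T at 20,000/well with 20 h treatment, quantifying pSer396 IRF3 relative to DMSO, plus a parallel CellTiter-Glo viability check.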

[4] = text bins, read-out: IC50 for inhibition of the kinase activity of IKKε
[5] = text bins, read-out: IC50 for inhibition of the kinase activity of TBK1
[6] = HEK293T cells, 20 hours, text bins, read-out: IC50 for inhibition of the in-situ IKKε-mediated phosphorylation of IRF3
[7] = HEK293T cells in culture, Table 3, read-out: pIRF3 ELISA IC50

Row | Compound | IC50 [1, 4] [nM] | IC50 [2, 5] [nM] | IC50 [3, 6] [nM] | IC50 ([1]; Table 3, read-out: IKKε IC50) [nM] | IC50 ([2]; Table 3, read-out: TBK1 IC50) [nM] | IC50 [3, 7] [nM]
1 | N#Cc1cc(-c2ccnc(Nc3ccc(CN)cc3)n2)ccc1OC1CCOCC1 [compound 486, 5-(2-{[4-(aminomethyl)phenyl]amino}pyrimidin-4-yl)-2-(tetrahydro-2H-pyran-4-yloxy)benzonitrile] | < 5 | < 10 | 250 to 500 |  |  | 
2 | COCCNCc1ccc(Nc2nccc(-c3ccc(OC4CCOCC4)c(C#N)c3)n2)cc1 [compound 488, 5-{2-[(4-{[(2-methoxyethyl)amino]methyl}phenyl)amino]pyrimidin-4-yl}-2-(tetrahydro-2H-pyran-4-yloxy)benzonitrile] | < 5 | < 10 | < 100 |  |  | 
3 | CCOC(=O)C(C)NCc1ccc(Nc2nccc(-c3ccc(OC4CCOCC4)c(C#N)c3)n2)cc1 (stereo not drawn) [compound 489, ethyl N-[4-({4-[3-cyano-4-(tetrahydro-2H-pyran-4-yloxy)phenyl]pyrimidin-2-yl}amino)benzyl] alaninate] | < 5 | < 10 | 100 to 250 |  |  | 
4 | CS(=O)(=O)NCc1ccc(Nc2nccc(-c3ccc(OC4CCOCC4)c(C#N)c3)n2)cc1 [compound 493, N-[4-({4-[3-cyano-4-(tetrahydro-2H-pyran-4-yloxy)phenyl]pyrimidin-2-yl}amino)benzyl] methanesulfonamide] | < 5 | < 10 | < 100 |  |  | 
5 | C[C@H](O)C(=O)NCc1ccc(Nc2nccc(-c3ccc(OC4CCOCC4)c(C#N)c3)n2)cc1 [compound 494, (2S)-N-[4-({4-[3-cyano-4-(tetrahydro-2H-pyran-4-yloxy)phenyl]pyrimidin-2-yl}amino)benzyl]-2-hydroxypropanamide] | < 5 | < 10 | 100 to 250 |  |  | 
6 | N#Cc1cc(-c2ccnc(Nc3ccc(CNC(=O)CO)cc3)n2)ccc1OC1CCOCC1 [compound 495, N-[4-({4-[3-cyano-4-(tetrahydro-2H-pyran-4-yloxy)phenyl]pyrimidin-2-yl}amino)benzyl]-2-hydroxyacetamide] | < 5 | < 10 | < 100 |  |  | 
7 | N#Cc1cc(-c2ccnc(Nc3ccc(CN4CC(O)C4)cc3)n2)ccc1OC1CCOCC1 [compound 497, 5-[2-({4-[(3-hydroxyazetidin-1-yl)methyl]phenyl}amino)pyrimidin-4-yl]-2-(tetrahydro-2H-pyran-4-yloxy)benzonitrile] | < 5 | < 10 | < 100 |  |  | 
8 | N#Cc1cc(-c2ccnc(Nc3ccc(CO)cc3)n2)ccc1OC1CCOCC1 [compound 499, 5-(2-{[4-(hydroxymethyl)phenyl]amino}pyrimidin-4-yl)-2-(tetrahydro-2H-pyran-4-yloxy)benzonitrile] | 5 to 50 | < 10 | 100 to 250 | 5.1 | 0.5 | 142
9 | N#Cc1cc(-c2ccnc(Nc3ccc(Cn4ccnc4)cc3)n2)ccc1OC1CCOCC1 [compound 500, 5-(2-{[4-(1H-imidazol-1-ylmethyl)phenyl]amino}pyrimidin-4-yl)-2-(tetrahydro-2H-pyran-4-yloxy)benzonitrile] | < 5 | < 10 | < 100 | 2 | 0.3 | 91.8
10 | CCN1CCN(Cc2ccc(Nc3nccc(-c4ccc(OC5CCN(C(=O)[C@H](C)O)CC5)c(C#N)c4)n3)cc2)CC1 [compound 508, 5-[2-({4-[(4-ethylpiperazin-1-yl)methyl]phenyl}amino)pyrimidin-4-yl]-2-({1-[(2S)-2-hydroxypropanoyl]piperidin-4-yl}oxy)benzonitrile] | 5 to 50 | 10 to 100 | 100 to 250 |  |  | 

Next, values leading:

Row | IC50 [1, 4] [nM] | IC50 [2, 5] [nM] | IC50 [3, 6] [nM] | IC50 ([1]; Table 3, read-out: IKKε IC50) [nM] | IC50 ([2]; Table 3, read-out: TBK1 IC50) [nM] | IC50 [3, 7] [nM] | Compound
11 | < 5 | < 10 | < 100 |  |  |  | COc1cc(Nc2nccc(-c3ccc(OC4CCOCC4)c(C#N)c3)n2)ccc1C(=O)N1CC(O)C1 [compound 485, 5-[2-({4-[(3-Hydroxyazetidinb-1-yl)carbonyl]-3-methoxyphenyl}amino)pyrimidin-4-yl]-2-(tetrahydro-2H-pyran-4-yloxy)benzonitrile]
12 | < 5 | < 10 | < 100 |  |  |  | COC1CN(Cc2ccc(Nc3nccc(-c4ccc(OC5CCOCC5)c(C#N)c4)n3)cc2)C1 [compound 487]
13 | < 5 | < 10 | < 100 |  |  |  | COc1cc(Nc2nccc(-c3ccc(OC4CCOCC4)c(C#N)c3)n2)ccc1CO [compound 498, 5-(2-{[4-(hydroxymethyl)-3-methoxyphenyl]amino}pyrimidin-4-yl)-2-(tetrahydro-2H-pyran-4-yloxy)benzonitrile]
14 | < 5 | < 10 | < 100 | 1.1 | 0.1 | 25.9 | COc1cc(Nc2nccc(-c3ccc(OC4CCOCC4)c(C#N)c3)n2)ccc1C(=O)N1CCN2CCCC2C1 (stereo not drawn) [compound 501, 5-(2-{[4-(hexahydropyrrolo[1,2-a]pyrazin-2(1H)-ylcarbonyl)-3-methoxyphenyl]amino}pyrimidin-4-yl)-2-(tetrahydro-2H-pyran-4-yloxy)benzonitrile]
15 | < 5 | < 10 | < 100 |  |  |  | COc1cc(Nc2nccc(-c3ccc(OC4CCOCC4)c(C#N)c3)n2)ccc1C(=O)N1CCC(N2CCCC2)C1 (stereo not drawn) [compound 502, 5-(2-{[4-(1,3′-bipyrrolidin-1′-ylcarbonyl)-3-methoxyphenyl]amino}pyrimidin-4-yl)-2-(tetrahydro-2H-pyran-4-yloxy)benzonitrile]
16 | < 5 | < 10 | < 100 |  |  |  | COc1cc(Nc2nccc(-c3ccc(OC4CCOCC4)c(C#N)c3)n2)ccc1C(=O)N1CCN(C(C)C)CC1 [compound 503, 5-{2-[(3-methoxy-4-{[4-(propan-2-yl)piperazin-1-yl]carbonyl}phenyl)amino]pyrimidin-4-yl}-2-(tetrahydro-2H-pyran-4-yloxy)benzonitrile]
17 | < 5 | < 10 | < 100 |  |  |  | COc1cc(Nc2nccc(-c3ccc(OC4CCOCC4)c(C#N)c3)n2)ccc1C(=O)NCCN1CCCC1 [compound 504, 4-({4-[3-cyano-4-(tetrahydro-2H-pyran-4-yloxy)phenyl]pyrimidin-2-yl}amino)-2-methoxy-N-[2-(pyrrolidin-1-yl)ethyl]benzamide]
18 | < 5 | < 10 | < 100 |  |  |  | CCN(CC)CCNC(=O)c1ccc(Nc2nccc(-c3ccc(OC4CCOCC4)c(C#N)c3)n2)cc1OC [compound 506, 4-({4-[3-cyano-4-(tetrahydro-2H-pyran-4-yloxy)phenyl]pyrimidin-2-yl}amino)-N-[2-(diethylamino)ethyl]-2-methoxybenzamide]
19 | < 5 | < 10 | < 100 |  |  |  | COc1cc(Nc2nccc(-c3ccc(OC4CCOCC4)c(C#N)c3)n2)ccc1C(=O)N1CC(CN(C)C)C1 [compound 507, 5-(2-{[4-({3-[(dimethylamino)methyl]azetidin-1-yl}carbonyl)-3-methoxyphenyl]amino}pyrimidin-4-yl)-2-(tetrahydro-2H-pyran-4-yloxy)benzonitrile]
